Test results published in article PMC3047591 (Inorganic chemistry, 2011).

How the values were obtained:
[1] = biological target: T1, His93Gly sperm whale myoglobin (H93G Mb) (Physeter macrocephalus, UniProt P02185, H94G); assay: electronic absorption and MCD spectroscopy, titration; format: binding
[2] = biological target: T1, His93Gly sperm whale myoglobin (H93G Mb); assay: electronic absorption and MCD spectroscopy of mixed CHA/Im adduct; format: binding

T1 sequence (P02185 2-154 H94G): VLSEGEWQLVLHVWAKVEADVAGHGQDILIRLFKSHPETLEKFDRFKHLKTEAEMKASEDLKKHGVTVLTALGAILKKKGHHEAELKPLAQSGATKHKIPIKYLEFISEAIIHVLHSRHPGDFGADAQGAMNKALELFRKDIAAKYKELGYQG

Compound	electronic absorption and MCD spectroscopy, titration [1]	electronic absorption and MCD spectroscopy of mixed CHA/Im adduct [2]
NC1CCCCC1 [CHA, cyclohexylamine]	ferric CHA-ligated H93G Mb is a six-coordinate high-spin H93G Mb derivative with the CHA amine group as the proximal donor	
c1c[nH]cn1 [Im, imidazole]		the final spectrum is that of a nearly homogeneous Im/CHA mixed-ligand adduct
